“Also recorded” adds a separate entry of the source.
Columns and labels:
Arc = Arc changes after ETP69 treatment (data not shown); assay type: in vivo, mice
aged C57Bl/6J male mice = assay: Object location memory (OLM) task in aged mice; assay type: in vivo; details: for OLM retention: memory performance (exploration of novel versus familiar location): retention test 24 hours later
Protocol: Object Location Memory (OLM): Training and testing procedures were performed using a standard OLM protocol. Briefly, 22 aged mice and 18 young mice were handled for about 2-3 minutes per day for 5 days, followed by habituation to the experimental apparatus (white rectangular open field measuring 30×23×21.5 cm) for 5 min per day for 5 consecutive days before training.
Dose Response in OLM: On the test day mice were given 3 minutes of habituation (in an empty test arena) followed by i.p. injection of ETP69 (10 mg/kg (n=8) or 20 mg/kg (n=7)) or vehicle (n=7). Mice were then given a 3-min acquisition trial (with 2 similar objects placed in the arena opposite each other) 30 minutes after the i.p. injection of drug or vehicle and all animals were then returned to their home cages for a 24 hour inter-trial interval. Twenty-four hours later, a 3-minute retention test was administered, where one object was moved to a novel location and the amount of time the animals spent exploring the novel versus familiar location was recorded in order to evaluate the dose response in the OLM task. Since animals that had received 10 mg/kg performed better than other groups in the OLM task, 10 mg/kg was used for the remainder of the study. This OLM paradigm has previously shown to be subthreshold for learning.
Acquisition (pre-training) or Consolidation (post-training): In another test, aimed to determine the efficacy of the compound in pre and post training paradigms, the same group of 22 aged animals were retested on the OLM task 3 weeks after the first test. To determine whether the drug impacted acquisition or consolidation mechanisms, mice were injected with the 10 mg/kg compound (i.p. n=7) or vehicle (n=8). Animals were sacrificed right after retention testing (i.e. 24 hours post injection), and hippocampi were removed, rapidly frozen on dry ice, and stored at −80° C. until processing for trimethylation levels and BDNF assay. FIG. 2 is a graphical representation of the effect of the drug at 10 mg/kg and 20 mg/kg (i.p) administered 30 minutes prior to acquisition phase in the novel place position task in mice. […] Data are mean±SEM; n=7 or 8/group.

H3K9me3 = H3K9me3 level in cultured hippocampal neurons by Western blotting; assay type: cell-based
Protocol: Next, we examined the effect of ETP69 on H3K9me3 levels in cultured hippocampal neurons. […] FIGS. 14A-B are illustrations of the effect of ETP69 on H3K9me3 levels in 14 DIV hippocampal neurons (FIG. 14A—gel image; FIG. 14B—quantification, n=3, *, p<0.05). As the illustrations show, ETP69 treatment (24 hours) decreased H3K9me3 level measured by Western blotting.

CN1C(=O)[C@@]23C[C@](C)(C#N)[C@H](c4ccc5c(c4)OCO5)N2C(=O)[C@]1(C)SS3 (racemic) [ETP69, Rac-(3S,6S,7S,8aS)-6-(benzo[d][1,3]dioxol-5-yl)-2,3,7-trimethyl-1,4-dioxohexahydro-6H-3,8a-epidithiopyrrolo[1,2-a]pyrazine-7-carbonitrile]
changes in Arc (Arc): did not observe changes in Arc
OLM acquisition phase: object exploration (seconds) (aged C57Bl/6J male mice; 10 mg/kg and 20 mg/kg i.p. 30 minutes before acquisition): no difference in object exploration
OLM acquisition phase, pre/post-trial experiment: group differences (aged C57Bl/6J male mice; 10 mg/kg i.p.): no significant group differences
OLM retention: memory performance (exploration of novel versus familiar location) (aged C57Bl/6J male mice; 10 mg/kg i.p. 30 minutes before acquisition, 10 mg/kg): explored the novel object significantly (measured in seconds) more than the familiar object; also recorded: induced memory improvements
OLM performance, pre-trial administration (aged C57Bl/6J male mice; 10 mg/kg i.p. 30 minutes prior to acquisition phase, tested 24 h): improved performance in the OLM task
OLM performance, post-trial administration (aged C57Bl/6J male mice; 10 mg/kg i.p. immediately after acquisition, tested 24 h): improved performance in the OLM task
OLM acquisition phase: total exploration time (aged C57Bl/6J male mice; 20 mg/kg i.p.): decrease in total exploration time
OLM retention: memory performance (exploration of novel versus familiar location) (aged C57Bl/6J male mice; 20 mg/kg i.p. 30 minutes before acquisition, 20 mg/kg): performed similar to aged controls; also recorded: but not 20 mg/kg induced memory improvements
neuronal H3K9me3 level at 20 nM (H3K9me3; 20 nM, 24 hours): greatest decrease
neuronal H3K9me3 level (H3K9me3; 24 hours treatment, 14 DIV hippocampal neurons): dose-dependent decrease
